Assay results from patent US10253002B2, “Compounds and methods of treating infections” (Neoculi Pty Ltd., priority 2013, dated 2019).
Several values for one entry are separate records, joined by “and”; a condition that tells them apart may be missing. Identical values can stand only once.

What was measured:
Assay in all cases: Broth microdilution MIC, Example 7 (NCL812 and analogues)
[1] = system: Pseudomonas aeruginosa; format: cell-based; conditions: 24 hours
[2] = system: MRSA; format: cell-based, Staphylococcus aureus
In short: (§1)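 MICs in μg/ml were read as growth inhibition by eye, checked at 600 nm absorbance against drug-free wells, following CLSI broth microdilution. Strains: two MRSA, two VRE; duplicates, repeated once more when results diverged beyond one dilution step.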

[3] = system: Escherichia coli; format: cell-based; conditions: 24 hours
[4] = system: VRE; format: cell-based, Enterococcus spp.
In short: as §1

[5] = P. aeruginosa, duplicate lines per compound
[6] = MRSA 1, 24 hours, duplicate lines per compound
[7] = MRSA 2, 24 hours, duplicate lines per compound
[8] = E. coli, duplicate lines per compound
[9] = VRE 1, 24 hours, duplicate lines per compound
[10] = VRE 2, 24 hours, duplicate lines per compound
[11] = isolate MRSA 1, 24 hours, 1st and 2nd replicate rows
[12] = isolate MRSA 2, 24 hours, 1st and 2nd replicate rows
[13] = isolate VRE 1, 24 hours, 1st and 2nd replicate rows
[14] = isolate VRE 2, 24 hours, 1st and 2nd replicate rows

C/C(=N\NC(=N)N/N=C(\C)c1ccc(Br)cc1)c1ccc(Br)cc1.Cl [NCL 155]
MIC (μg/ml) at 24 hours, P. aeruginosa [1, 5]: >128 µg/mL | MIC (μg/ml) at 24 hours, MRSA 1 [2, 6]: 8 µg/mL | MIC (μg/ml) at 24 hours, MRSA 2 [2, 7]: 8 µg/mL | MIC (μg/ml) at 24 hours, E. coli [3, 8]: >128 µg/mL | MIC (μg/ml) at 24 hours, VRE 1 [4, 9]: 16 µg/mL | MIC (μg/ml) at 24 hours, VRE 2 [4, 10]: 8 µg/mL

C#Cc1cccc(C=NNC(=N)NN=Cc2cccc(C#C)c2)c1.Cl [NCL 126]
MIC (μg/ml) at 24 hours, P. aeruginosa [1, 5]: >128 µg/mL | MIC (μg/ml) at 24 hours, MRSA 1 [2, 6]: >128 µg/mL | MIC (μg/ml) at 24 hours, MRSA 2 [2, 7]: >128 µg/mL | MIC (μg/ml) at 24 hours, E. coli [3, 8]: >128 µg/mL | MIC (μg/ml) at 24 hours, VRE 1 [4, 9]: 4 µg/mL and 8 µg/mL | MIC (μg/ml) at 24 hours, VRE 2 [4, 10]: >128 µg/mL

Cl.N=C(NN=Cc1c(O)ccc2ccccc12)NN=Cc1c(O)ccc2ccccc12 [NCL 124]
MIC (μg/ml) at 24 hours, P. aeruginosa [1, 5]: >128 µg/mL | MIC (μg/ml) at 24 hours, MRSA 1 [2, 6]: >128 µg/mL | MIC (μg/ml) at 24 hours, MRSA 2 [2, 7]: >128 µg/mL | MIC (μg/ml) at 24 hours, E. coli [3, 8]: >128 µg/mL | MIC (μg/ml) at 24 hours, VRE 1 [4, 9]: >128 µg/mL | MIC (μg/ml) at 24 hours, VRE 2 [4, 10]: >128 µg/mL

COc1ccc(C=NNC(=N)NN=Cc2ccc(OC)c(OC)c2)cc1OC.Cl [NCL 115]
MIC (μg/ml) at 24 hours, P. aeruginosa [1, 5]: >128 µg/mL | MIC (μg/ml) at 24 hours, MRSA 1 [2, 6]: >128 µg/mL | MIC (μg/ml) at 24 hours, MRSA 2 [2, 7]: >128 µg/mL | MIC (μg/ml) at 24 hours, E. coli [3, 8]: >128 µg/mL | MIC (μg/ml) at 24 hours, VRE 1 [4, 9]: >128 µg/mL | MIC (μg/ml) at 24 hours, VRE 2 [4, 10]: >128 µg/mL

Cl.N=C(N/N=C/C=C/c1ccccc1)N/N=C/C=C/c1ccccc1 [NCL096]
MIC (μg/ml) at 24 hours, P. aeruginosa [1, 5]: >128 µg/mL | MIC (μg/ml) at 24 hours, MRSA 1 [2, 6]: >128 µg/mL | MIC (μg/ml) at 24 hours, MRSA 2 [2, 7]: >128 µg/mL | MIC (μg/ml) at 24 hours, E. coli [3, 8]: >128 µg/mL | MIC (μg/ml) at 24 hours, VRE 1 [4, 9]: >128 µg/mL | MIC (μg/ml) at 24 hours, VRE 2 [4, 10]: >128 µg/mL

Cc1ccc(C=NNC(=N)NN=Cc2ccc(Cl)cc2)cc1.Cl [NCL076]
MIC (μg/ml) at 24 hours, P. aeruginosa [1, 5]: >128 µg/mL | MIC (μg/ml) at 24 hours, MRSA 1 [2, 6]: >128 µg/mL | MIC (μg/ml) at 24 hours, MRSA 2 [2, 7]: >128 µg/mL | MIC (μg/ml) at 24 hours, E. coli [3, 8]: >128 µg/mL | MIC (μg/ml) at 24 hours, VRE 1 [4, 9]: >128 µg/mL | MIC (μg/ml) at 24 hours, VRE 2 [4, 10]: >128 µg/mL

Nc1nc(N/N=C/C2CCCCC2)nc(N/N=C/C2CCCCC2)n1 [NCL213]
MIC (μg/ml) at 24 hours, P. aeruginosa ([1]; P. aeruginosa): >128 µg/mL | MIC (μg/ml) at 24 hours, MRSA 1 ([2]; MRSA 1, 24 hours): >128 µg/mL | MIC (μg/ml) at 24 hours, MRSA 2 ([2]; MRSA 2, 24 hours): >128 µg/mL | MIC (μg/ml) at 24 hours, E. coli ([3]; E. coli): >128 µg/mL | MIC (μg/ml) at 24 hours, VRE 1 ([4]; VRE 1, 24 hours): >128 µg/mL | MIC (μg/ml) at 24 hours, VRE 2 ([4]; VRE 2, 24 hours): >128 µg/mL

Nc1nc(NNC(=O)c2ccccc2)cc(NNC(=O)c2ccccc2)n1 [NCL194]
MIC (μg/ml) at 24 hours, P. aeruginosa ([1]; P. aeruginosa): >128 µg/mL | MIC (μg/ml) at 24 hours, MRSA 1 ([2]; MRSA 1, 24 hours): >128 µg/mL | MIC (μg/ml) at 24 hours, MRSA 2 ([2]; MRSA 2, 24 hours): >128 µg/mL | MIC (μg/ml) at 24 hours, E. coli ([3]; E. coli): >128 µg/mL | MIC (μg/ml) at 24 hours, VRE 1 ([4]; VRE 1, 24 hours): >128 µg/mL | MIC (μg/ml) at 24 hours, VRE 2 ([4]; VRE 2, 24 hours): >128 µg/mL

CCNC(=O)N(/N=C/c1ccc(Cl)cc1)C(N)=N/N=C/c1ccc(Cl)cc1 [NCL226]
MIC (μg/ml) at 24 hours, P. aeruginosa ([1]; P. aeruginosa): >128 µg/mL | MIC (μg/ml) at 24 hours, MRSA 1 ([2]; MRSA 1, 24 hours): >128 µg/mL | MIC (μg/ml) at 24 hours, MRSA 2 ([2]; MRSA 2, 24 hours): >128 µg/mL | MIC (μg/ml) at 24 hours, E. coli ([3]; E. coli): >128 µg/mL | MIC (μg/ml) at 24 hours, VRE 1 ([4]; VRE 1, 24 hours): >128 µg/mL | MIC (μg/ml) at 24 hours, VRE 2 ([4]; VRE 2, 24 hours): >128 µg/mL

N#Cc1cccc(/C=N/NC(N)=O)c1 [NCL051]
MIC (μg/ml) at 24 hours, P. aeruginosa ([1]; 1st and 2nd replicate rows): >128 µg/mL | MIC (μg/ml) at 24 hours, MRSA 1 [2, 11]: >128 µg/mL | MIC (μg/ml) at 24 hours, MRSA 2 [2, 12]: >128 µg/mL | MIC (μg/ml) at 24 hours, E. coli ([3]; 1st and 2nd replicate rows): >128 µg/mL | MIC (μg/ml) at 24 hours, VRE 1 [4, 13]: >128 µg/mL | MIC (μg/ml) at 24 hours, VRE 2 [4, 14]: >128 µg/mL

Cl.N=C(N/N=C/c1ccc2ccccc2c1)N/N=C/c1ccc2ccccc2c1 [NCL093]
MIC (μg/ml) at 24 hours, P. aeruginosa [1, 5]: >128 µg/mL | activity against MRSA among analogues ([2]; MIC testing, two MRSA strains): greatest activity | MIC (μg/ml) at 24 hours, MRSA 1 [2, 6]: 64 µg/mL | MIC (μg/ml) at 24 hours, MRSA 2 [2, 7]: 128 µg/mL | MIC (μg/ml) at 24 hours, E. coli [3, 8]: >128 µg/mL | activity against VRE among analogues ([4]; MIC testing, two VRE strains): greatest activity | MIC (μg/ml) at 24 hours, VRE 1 [4, 9]: 64 µg/mL | MIC (μg/ml) at 24 hours, VRE 2 [4, 10]: >128 µg/mL

O=C(N/N=C/c1ccccc1Cl)N/N=C/c1ccccc1Cl [NCL002]
MIC (μg/ml) at 24 hours, P. aeruginosa ([1]; 1st and 2nd replicate rows): >128 µg/mL | MIC (μg/ml) at 24 hours, MRSA 1 [2, 11]: >128 µg/mL | MIC (μg/ml) at 24 hours, MRSA 2 [2, 12]: >128 µg/mL | MIC (μg/ml) at 24 hours, E. coli ([3]; 1st and 2nd replicate rows): >128 µg/mL | MIC (μg/ml) at 24 hours, VRE 1 [4, 13]: >128 µg/mL | MIC (μg/ml) at 24 hours, VRE 2 [4, 14]: >128 µg/mL

Cl.N=C(NN=C1C(=O)Nc2ccccc21)NN=C1C(=O)Nc2ccccc21 [NCL 163]
MIC (μg/ml) at 24 hours, P. aeruginosa [1, 5]: >128 µg/mL | MIC (μg/ml) at 24 hours, MRSA 1 [2, 6]: >128 µg/mL | MIC (μg/ml) at 24 hours, MRSA 2 [2, 7]: >128 µg/mL | MIC (μg/ml) at 24 hours, E. coli [3, 8]: >128 µg/mL | MIC (μg/ml) at 24 hours, VRE 1 [4, 9]: >128 µg/mL | MIC (μg/ml) at 24 hours, VRE 2 [4, 10]: >128 µg/mL
